# What was measured:
# Assay type in all cases: in vivo
# [1] = system: Chenopodium album; experiment: greenhouse herbicidal test, post-emergence treatment; settings: 0.125 or 0.0625 kg/ha (of a.s.), Chenopodium album (lambsquarters)
# Description: (§1) The culture containers used were plastic flowerpots containing loamy soil with approximately 3.0% of humus as the substrate. The seeds of the test plants were sown separately for each species.
# (§2) For the post-emergence treatment, the test plants were first grown to a plant height of 3 to 15 cm, depending on the plant habit, and only then treated with the active compounds which had been suspended or emulsified in water. The test plants for this purpose were either sown directly and grown in the same containers, or they were first grown separately as seedlings and transplanted into the test containers a few days prior to treatment. The rate of application for the post-emergence treatment was 0.125.or 0.0625 kg/ha of a.s. (active substance).
# (§3) Depending on the species, the plants were kept at 10-25° C. or 20-35° C. The test period extended over 2 to 4 weeks. During this time, the plants were tended, and their response to the individual treatments was evaluated.
# (§4) Evaluation was carried out using a scale from 0 to 100. 100 means no emergence of the plants, or complete destruction of at least the aerial parts, and 0 means no damage, or normal course of growth.
# (§5) The plants used in the greenhouse experiments belonged to the following species: […]
# [2] = system: Echinochloa crus galli; experiment: as above; settings: 0.125 or 0.0625 kg/ha (of a.s.), Echinochloa crus galli (barnyardgrass)
# Description: as §1, §2, §3, §4, §5
# [3] = system: Sinapis alba; experiment: as above; settings: 0.125 or 0.0625 kg/ha (of a.s.), Sinapis alba (white mustard)
# Description: as §1, §2, §3, §4, §5
# [4] = system: Zea mays; experiment: greenhouse test, post-emergence treatment, crop tolerance; settings: 0.125 or 0.0625 kg/ha (of a.s.)
# Description: as §1, §2, §3, §4, §5
smiles,measurement,setting,value
"CCON=Cc1c(S(C)(=O)=O)ccc(C(=O)C2C(=O)CC(C)(C)CC2=O)c1Cl [Compound 2.07, 2-(2-Chloro-3-ethoxyiminomethyl-4-methylsulfonylbenzoyl)-5,5-dimethyl-1,3-cyclohexanedione]",herbicidal activity against harmful plants,[1],very good activity
same,herbicidal activity against harmful plants,[2],very good activity
same,herbicidal activity against harmful plants,[3],very good activity
same,tolerance in crop plant maize,[4],well tolerated
